Where two headings read alike, the source gives them in different places.

Assay [1] relates to Cells stably expressing Amyloid Precursor Protein (APP). In words: In vitro BACE cell-based assay (HEK cell assay): Aβ40 in conditioned medium by sandwich ELISA. Put shortly:
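Secreted Aβ40 was quantified by time-resolved fluorescence sandwich ELISA, capturing with pAb40 for 3 h at 4 °C and detecting with biotinylated 6E10 for 2 h at 4 °C. Media came from APP-expressing cells exposed 24 h to compounds (10-point series from 100 or 10 μM, 0.1% DMSO); IC50 derived from percent of control.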

A further assay addresses BACE1 (Homo sapiens, UniProt P56817). Kind of assay: In vitro enzymatic BACE FRET (fluorescence resonance energy transfer) assay. The class given is biochemical. Put shortly:
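Fluorescence (ex 488 nm, […]) was read after Tris addition raised pH to neutral, ending a one-hour incubation. Reaction started with 50 nM fluorophore/quencher peptide substrate in pH 4.2 acetate (0.05 M) containing 100 uM genapol and 10% DMSO final.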

Setting [2] is: Homo sapiens, HEK293, 24 h, Aβ40 in conditioned medium after 24 h incubation.

Chain of BACE1 (P56817 46-501, species assumed): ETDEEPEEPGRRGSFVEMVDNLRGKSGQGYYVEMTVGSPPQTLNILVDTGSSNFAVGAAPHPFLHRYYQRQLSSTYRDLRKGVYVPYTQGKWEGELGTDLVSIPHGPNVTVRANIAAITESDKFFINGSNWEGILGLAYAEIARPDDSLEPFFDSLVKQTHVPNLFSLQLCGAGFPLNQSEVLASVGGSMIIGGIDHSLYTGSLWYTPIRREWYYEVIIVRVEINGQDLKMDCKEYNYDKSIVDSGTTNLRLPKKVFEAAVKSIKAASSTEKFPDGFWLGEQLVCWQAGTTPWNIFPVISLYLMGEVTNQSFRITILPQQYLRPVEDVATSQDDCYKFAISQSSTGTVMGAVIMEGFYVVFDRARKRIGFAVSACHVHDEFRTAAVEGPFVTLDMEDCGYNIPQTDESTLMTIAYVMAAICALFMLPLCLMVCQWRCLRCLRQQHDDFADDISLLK

As to `C=CC[C@H](NC(=O)c1cc(F)cc(F)c1F)[C@H](O)CN[C@H]1CC2(CCC2)Oc2ncc(CC(C)(C)C)cc21` [Example 74, N-((1S)-1-((1R)-2-(((4′S)-6′-(2,2-dimethylpropyl)-3′,4′-dihydrospiro[cyclobutane-1,2′-pyrano[2,3-b]pyridin]-4′-yl)amino)-1-hydroxyethyl)-3-buten-1-yl)-2,3,5-trifluorobenzamide], the IC50 in assay [1] (setting [2]) was 1620 nM; at BACE1 it was 305 nM.
For `C=CC[C@H](NC(=O)C(C)(C)F)[C@H](O)CN[C@H]1CC2(CCC2)Oc2ncc(CC(C)(C)C)cc21` [Example 141, N-((1S)-1-((1R)-2-(((4′S)-6′-(2,2-dimethylpropyl)-3′,4′-dihydrospiro[cyclobutane-1,2′-pyrano[2,3-b]pyridin]-4′-yl)amino)-1-hydroxyethyl)-3-buten-1-yl)-2-fluoro-2-methylpropanamide], in that order: 483 nM and 951 nM.
For `C=C(C)C[C@H](NC(=O)c1ccc2c(c1)OC(F)(F)O2)[C@H](O)CN[C@H]1CC2(CCC2)Oc2ncc(CC(C)(C)C)cc21` [Example 101, N-((1S)-1-((1R)-2-(((4′S)-6′-(2,2-dimethylpropyl)-3′,4′-dihydrospiro[cyclobutane-1,2′-pyrano[2,3-b]pyridin]-4′-yl)amino)-1-hydroxyethyl)-3-methyl-3-buten-1-yl)-2,2-difluoro-1,3-benzodioxole-5-carboxamide], in that order: at least 10000 nM and 9880 nM.
Regarding `C=CC[C@H](NC(=O)C1(OC)CC1)[C@H](O)CN[C@H]1CC2(CCC2)Oc2ncc(CC(C)(C)C)cc21` [Example 151, N-((1S)-1-((1R)-2-(((4′S)-6′-(2,2-dimethylpropyl)-3′,4′-dihydrospiro[cyclobutane-1,2′-pyrano[2,3-b]pyridin]-4′-yl)amino)-1-hydroxyethyl)-3-buten-1-yl)-1-(methyloxy)cyclopropanecarboxamide], the IC50 in assay [1] (setting [2]) was 878 nM; on BACE1, 454 nM.
Consider `C=CC[C@H](NC(=O)c1cccnc1F)[C@H](O)CN[C@H]1CC2(CCC2)Oc2ncc(CC(C)(C)C)cc21` [Example 67, N-((1S)-1-((1R)-2-(((4′S)-6′-(2,2-dimethylpropyl)-3′,4′-dihydrospiro[cyclobutane-1,2′-pyrano[2,3-b]pyridin]-4′-yl)amino)-1-hydroxyethyl)-3-buten-1-yl)-2-fluoro-3-pyridinecarboxamide], for which the IC50 stood at 517 nM in assay [1] (setting [2]) and 199 nM on BACE1.
Take `C=CC[C@H](NC(=O)[C@@H](OC)C(C)C)[C@H](O)CN[C@H]1CC2(CCC2)Oc2ncc(CC(C)(C)C)cc21` [Example 149, (2S)-N-((1S)-1-((1R)-2-(((4′S)-6′-(2,2-dimethylpropyl)-3′,4′-dihydrospiro[cyclobutane-1,2′-pyrano[2,3-b]pyridin]-4′-yl)amino)-1-hydroxyethyl)-3-buten-1-yl)-3-methyl-2-(methyloxy)butanamide]: the figures for the IC50 (in assay [1] (setting [2]); at BACE1) were 1870 nM and 934 nM, respectively.
For `C=CC[C@H](NC(=O)c1ccc2c(c1)OC(F)(F)O2)[C@H](O)CN[C@H]1CC2(CCC2)Oc2ncc(CC(C)(C)C)cc21` [Example 104, N-((1S)-1-((1R)-2-(((4′S)-6′-(2,2-dimethylpropyl)-3′,4′-dihydrospiro[cyclobutane-1,2′-pyrano[2,3-b]pyridin]-4′-yl)amino)-1-hydroxyethyl)-3-buten-1-yl)-2,2-difluoro-1,3-benzodioxole-5-carboxamide], in that order: 2360 nM and 154 nM.
Regarding `CC=CC[C@H](NC(=O)COC)[C@H](O)CN[C@H]1CC2(CC(F)C2)Oc2ncc(CC(C)(C)C)cc21` (stereo partly drawn) [Example 110, N-((1S)-1-((1R)-2-(((1s,3S,4′S)-6′-(2,2-dimethylpropyl)-3-fluoro-3′,4′-dihydrospiro[cyclobutane-1,2′-pyrano[2,3-b]pyridin]-4′-yl)amino)-1-hydroxyethyl)-3-penten-1-yl)-2-(methyloxy)acetamide], the values for the IC50 (in assay [1] (Aβ40 in conditioned medium after 24 h incubation); at BACE1) were 293 nM and 40 nM, respectively.
On to `C=CC[C@H](NC(C)=O)[C@H](O)CN[C@H]1C[C@]2(CC[C@@H]2O)Oc2ncc(CC(C)(C)C)cc21` [Example 51, N-((1S)-1-((1R)-2-(((1S,2S,4′S)-6′-(2,2-dimethylpropyl)-2-hydroxy-3′,4′-dihydrospiro[cyclobutane-1,2′-pyrano[2,3-b]pyridin]-4′-yl)amino)-1-hydroxyethyl)-3-buten-1-yl)acetamide], for which the IC50 came out at 212 nM in assay [1] (setting [2]) and 63 nM on BACE1.
As to `CCC[C@H](NC(=O)[C@@H]1CCCO1)[C@H](O)CN[C@H]1CC2(CCC2)Oc2c1cc(CC(C)(C)C)nc2Cl` [compound 224, (2S)-N-((1S)-1-((1R)-2-(((4′S)-8′-chloro-6′-(2,2-dimethylpropyl)-3′,4′-dihydrospiro[cyclobutane-1,2′-pyrano[2,3-c]pyridin]-4′-yl)amino)-1-hydroxyethyl)butyl)tetrahydro-2-furancarboxamide], the IC50 in assay [1] (Homo sapiens, HEK293) came to 2840 nM; at BACE1 (read-out: BACE 1 FRET assay), 533 nM.
Consider `C=CC[C@H](NC(C)=O)[C@H](O)CN[C@H]1CC2(CCC2)Oc2c1cc(CC(C)(C)C)nc2N1CCCC1` [Example 46, N-((1S)-1-((1R)-2-(((4′S)-6′-(2,2-dimethylpropyl)-8′-(1-pyrrolidinyl)-3′,4′-dihydrospiro[cyclobutane-1,2′-pyrano[2,3-c]pyridin]-4′-yl)amino)-1-hydroxyethyl)-3-buten-1-yl)acetamide], for which the IC50 in assay [1] (setting [2]) was 183 nM; on BACE1, 373 nM.
`C=CC[C@H](NC(=O)c1cscn1)[C@H](O)CN[C@H]1CC2(CCC2)Oc2ncc(CC(C)(C)C)cc21` [Example 134, N-((1S)-1-((1R)-2-(((4′S)-6′-(2,2-dimethylpropyl)-3′,4′-dihydrospiro[cyclobutane-1,2′-pyrano[2,3-b]pyridin]-4′-yl)amino)-1-hydroxyethyl)-3-buten-1-yl)-1,3-thiazole-4-carboxamide]: the figures for the IC50 (in assay [1] (setting [2]); at BACE1) were 664 nM and 130 nM, respectively.
Taken in the same sequence, the figures for `C=CC[C@H](NC(=O)c1cncc(F)c1)[C@H](O)CN[C@H]1CC2(CCC2)Oc2ncc(CC(C)(C)C)cc21` [Example 56, N-((1S)-1-((1R)-2-(((4′S)-6′-(2,2-dimethylpropyl)-3′,4′-dihydrospiro[cyclobutane-1,2′-pyrano[2,3-b]pyridin]-4′-yl)amino)-1-hydroxyethyl)-3-buten-1-yl)-5-fluoro-3-pyridinecarboxamide] were 392 nM and 125 nM.
Consider `CC(=O)N[C@@H](CC=C1CCC1)[C@H](O)CN[C@H]1CC2(CCC2)Oc2ncc(CC(C)(C)C)cc21` [Example 83, N-((1S,2R)-1-(2-cyclobutylideneethyl)-3-(((4′S)-6′-(2,2-dimethylpropyl)-3′,4′-dihydrospiro[cyclobutane-1,2′-pyrano[2,3-b]pyridin]-4′-yl)amino)-2-hydroxypropyl)acetamide], for which the IC50 worked out at 18 nM in assay [1] (setting [2]) and 11 nM at BACE1.
For `C=CC[C@H](NC(=O)[C@H](OC)C(C)C)[C@H](O)CN[C@H]1CC2(CCC2)Oc2ncc(CC(C)(C)C)cc21` [Example 150, (2R)-N-((1S)-1-((1R)-2-(((4′S)-6′-(2,2-dimethylpropyl)-3′,4′-dihydrospiro[cyclobutane-1,2′-pyrano[2,3-b]pyridin]-4′-yl)amino)-1-hydroxyethyl)-3-buten-1-yl)-3-methyl-2-(methyloxy)butanamide], in that order: 5280 nM and 2670 nM.
Taken in the same sequence, the figures for `C=CC[C@H](NC(=O)c1ccc(F)nc1)[C@H](O)CN[C@H]1CC2(CCC2)Oc2ncc(CC(C)(C)C)cc21` [Example 66, N-((1S)-1-((1R)-2-(((4′S)-6′-(2,2-dimethylpropyl)-3′,4′-dihydrospiro[cyclobutane-1,2′-pyrano[2,3-b]pyridin]-4′-yl)amino)-1-hydroxyethyl)-3-buten-1-yl)-6-fluoro-3-pyridinecarboxamide] were 71 nM and 179 nM.
Taken in the same sequence, the figures for `C=CC[C@H](NC(=O)COC)[C@H](O)CN[C@H]1CC2(CCC2)Oc2nc(F)c(CC(C)C)cc21` [Example 126, N-((1S)-1-((1R)-2-(((4′S)-7′-fluoro-6′-(2-methylpropyl)-3′,4′-dihydrospiro[cyclobutane-1,2′-pyrano[2,3-b]pyridin]-4′-yl)amino)-1-hydroxyethyl)-3-buten-1-yl)-2-(methyloxy)acetamide] were 211 nM and 316 nM.
As for `C=CC[C@H](NC(=O)c1ccc(F)cc1)[C@H](O)CN[C@H]1CC2(CCC2)Oc2ncc(CC(C)(C)C)cc21` [Example 58, N-((1S)-1-((1R)-2-(((4′S)-6′-(2,2-dimethylpropyl)-3′,4′-dihydrospiro[cyclobutane-1,2′-pyrano[2,3-b]pyridin]-4′-yl)amino)-1-hydroxyethyl)-3-buten-1-yl)-4-fluorobenzamide], the IC50 in assay [1] (setting [2]) worked out at 666 nM; on BACE1, 172 nM.
For `C=CC[C@H](NC(=O)COC)[C@H](O)CN[C@H]1CC2(CCC2)Oc2ncc(CC(C)(C)CF)cc21` [Example 80, N-((1S)-1-((1R)-2-(((4′S)-6′-(3-fluoro-2,2-dimethylpropyl)-3′,4′-dihydrospiro[cyclobutane-1,2′-pyrano[2,3-b]pyridin]-4′-yl)amino)-1-hydroxyethyl)-3-buten-1-yl)-2-(methyloxy)acetamide], in that order: 249 nM and 84 nM.
With `C=CC[C@H](NC(=O)c1cnccc1OC)[C@H](O)CN[C@H]1CC2(CCC2)Oc2ncc(CC(C)(C)C)cc21` [Example 76, N-((1S)-1-((1R)-2-(((4′S)-6′-(2,2-dimethylpropyl)-3′,4′-dihydrospiro[cyclobutane-1,2′-pyrano[2,3-b]pyridin]-4′-yl)amino)-1-hydroxyethyl)-3-buten-1-yl)-4-(methyloxy)-3-pyridinecarboxamide], the IC50 in assay [1] (setting [2]) came out at 802 nM; on BACE1 it was 675 nM.
